Test results from ChEMBL document CHEMBL5338754, “Identification of Binding Sites in the Nucleotide-Binding Domain of P-Glycoprotein for a Potent and Nontoxic Modulator, the Amine-Containing Monomeric Flavonoid FM04” (J Med Chem, 2023).

What was measured:
Format in all cases: cell-based
[1] = molecular target: ATP-dependent translocase ABCB1 (Homo sapiens, UniProt P08183, Q1193T); test: Negative allosteric modulator activity at human P-gp Q1193T mutant expressed in HEK293FT cells assessed as increase in intracellular doxorubicin accumulation using doxorubicin as substrate at 1 uM incubated for 150 mins by microplate reader assay (reference value: 65.5 +/- 0.9 %); details: 2.5 h
Sequence of ATP-dependent translocase ABCB1 (Homo sapiens, UniProt P08183, Q1193T) (P08183 whole entry Q1193T): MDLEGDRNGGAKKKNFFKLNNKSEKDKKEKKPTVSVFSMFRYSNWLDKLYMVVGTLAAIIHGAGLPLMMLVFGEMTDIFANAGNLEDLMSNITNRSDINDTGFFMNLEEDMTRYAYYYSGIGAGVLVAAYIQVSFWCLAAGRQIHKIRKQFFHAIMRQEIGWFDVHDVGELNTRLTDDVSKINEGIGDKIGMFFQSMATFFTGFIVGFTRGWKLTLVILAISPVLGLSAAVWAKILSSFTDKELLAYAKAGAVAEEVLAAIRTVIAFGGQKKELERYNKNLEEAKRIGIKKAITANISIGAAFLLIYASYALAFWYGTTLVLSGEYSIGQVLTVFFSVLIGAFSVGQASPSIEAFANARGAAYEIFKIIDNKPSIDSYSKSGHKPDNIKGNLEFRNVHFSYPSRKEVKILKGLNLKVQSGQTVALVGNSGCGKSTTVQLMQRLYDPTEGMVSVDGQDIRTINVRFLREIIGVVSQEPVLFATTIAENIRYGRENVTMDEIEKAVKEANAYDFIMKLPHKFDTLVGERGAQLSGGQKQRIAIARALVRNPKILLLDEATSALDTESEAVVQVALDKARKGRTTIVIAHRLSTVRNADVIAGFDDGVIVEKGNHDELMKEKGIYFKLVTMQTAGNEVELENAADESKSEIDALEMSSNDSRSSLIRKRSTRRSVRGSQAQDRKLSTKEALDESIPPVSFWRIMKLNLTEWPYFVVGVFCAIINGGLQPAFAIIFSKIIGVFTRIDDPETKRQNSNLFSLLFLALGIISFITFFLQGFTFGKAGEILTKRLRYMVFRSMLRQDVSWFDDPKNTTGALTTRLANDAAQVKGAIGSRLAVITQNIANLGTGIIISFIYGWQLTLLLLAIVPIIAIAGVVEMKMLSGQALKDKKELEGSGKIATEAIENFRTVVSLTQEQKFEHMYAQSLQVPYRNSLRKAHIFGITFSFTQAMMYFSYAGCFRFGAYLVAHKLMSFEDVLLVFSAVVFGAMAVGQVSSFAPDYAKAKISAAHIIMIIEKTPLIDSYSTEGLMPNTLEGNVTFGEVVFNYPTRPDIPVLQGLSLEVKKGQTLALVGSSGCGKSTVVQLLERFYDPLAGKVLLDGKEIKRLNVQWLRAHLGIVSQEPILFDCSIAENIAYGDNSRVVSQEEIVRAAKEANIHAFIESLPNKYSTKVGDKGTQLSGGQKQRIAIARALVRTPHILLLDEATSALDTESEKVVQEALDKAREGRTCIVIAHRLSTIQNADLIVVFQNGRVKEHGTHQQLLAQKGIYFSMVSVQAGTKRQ

[2] = molecular target: ATP-dependent translocase ABCB1 (Homo sapiens, UniProt P08183, Q1193E); test: Negative allosteric modulator activity at human P-gp Q1193E mutant expressed in HEK293FT cells assessed as fold change in intracellular doxorubicin accumulation using doxorubicin as substrate at 1 uM incubated for 150 mins by microplate reader assay relative to DMSO; details: 2.5 h
Sequence of ATP-dependent translocase ABCB1 (Homo sapiens, UniProt P08183, Q1193E) (P08183 whole entry Q1193E): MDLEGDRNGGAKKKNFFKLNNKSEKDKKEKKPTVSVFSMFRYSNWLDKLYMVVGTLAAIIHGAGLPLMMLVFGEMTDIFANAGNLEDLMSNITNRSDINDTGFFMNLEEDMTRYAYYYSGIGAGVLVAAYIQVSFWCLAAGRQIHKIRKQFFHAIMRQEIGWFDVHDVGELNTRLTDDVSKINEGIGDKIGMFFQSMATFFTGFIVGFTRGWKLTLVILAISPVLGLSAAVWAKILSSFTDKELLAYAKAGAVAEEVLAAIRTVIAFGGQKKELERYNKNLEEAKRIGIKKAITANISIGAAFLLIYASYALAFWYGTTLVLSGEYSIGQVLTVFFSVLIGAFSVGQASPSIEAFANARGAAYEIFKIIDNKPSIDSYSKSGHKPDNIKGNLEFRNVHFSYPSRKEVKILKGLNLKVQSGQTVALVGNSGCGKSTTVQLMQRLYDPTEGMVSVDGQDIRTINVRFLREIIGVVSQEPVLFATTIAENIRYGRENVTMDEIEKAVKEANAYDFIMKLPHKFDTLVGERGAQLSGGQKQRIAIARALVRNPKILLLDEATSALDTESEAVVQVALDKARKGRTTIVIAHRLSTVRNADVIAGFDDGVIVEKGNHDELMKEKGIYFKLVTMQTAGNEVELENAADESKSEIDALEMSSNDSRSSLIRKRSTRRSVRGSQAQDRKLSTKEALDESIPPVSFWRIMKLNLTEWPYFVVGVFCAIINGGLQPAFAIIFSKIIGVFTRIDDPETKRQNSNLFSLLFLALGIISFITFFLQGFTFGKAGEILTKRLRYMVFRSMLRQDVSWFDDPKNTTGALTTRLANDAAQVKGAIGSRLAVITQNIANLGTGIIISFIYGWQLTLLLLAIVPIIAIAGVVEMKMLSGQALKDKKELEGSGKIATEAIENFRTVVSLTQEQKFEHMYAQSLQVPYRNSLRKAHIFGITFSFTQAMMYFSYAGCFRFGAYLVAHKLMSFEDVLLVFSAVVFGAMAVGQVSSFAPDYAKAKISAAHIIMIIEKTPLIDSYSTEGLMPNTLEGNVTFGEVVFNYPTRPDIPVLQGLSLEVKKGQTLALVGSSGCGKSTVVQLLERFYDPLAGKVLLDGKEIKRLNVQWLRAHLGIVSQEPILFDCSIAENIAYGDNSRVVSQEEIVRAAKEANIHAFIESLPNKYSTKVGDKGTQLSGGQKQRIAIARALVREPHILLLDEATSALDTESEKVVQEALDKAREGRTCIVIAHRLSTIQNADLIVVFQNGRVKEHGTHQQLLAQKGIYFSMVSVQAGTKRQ

[3] = molecular target: ATP-dependent translocase ABCB1 (Homo sapiens, UniProt P08183, I1115L); test: Negative allosteric modulator activity at human P-gp I1115L mutant expressed in HEK293FT cells assessed as reversal of P-gp mediated PTX resistance by measuring sensitivity fold change incubated for 5 days by MTS assay; details: 120 h, time 5 day
Sequence of ATP-dependent translocase ABCB1 (Homo sapiens, UniProt P08183, I1115L) (P08183 whole entry I1115L): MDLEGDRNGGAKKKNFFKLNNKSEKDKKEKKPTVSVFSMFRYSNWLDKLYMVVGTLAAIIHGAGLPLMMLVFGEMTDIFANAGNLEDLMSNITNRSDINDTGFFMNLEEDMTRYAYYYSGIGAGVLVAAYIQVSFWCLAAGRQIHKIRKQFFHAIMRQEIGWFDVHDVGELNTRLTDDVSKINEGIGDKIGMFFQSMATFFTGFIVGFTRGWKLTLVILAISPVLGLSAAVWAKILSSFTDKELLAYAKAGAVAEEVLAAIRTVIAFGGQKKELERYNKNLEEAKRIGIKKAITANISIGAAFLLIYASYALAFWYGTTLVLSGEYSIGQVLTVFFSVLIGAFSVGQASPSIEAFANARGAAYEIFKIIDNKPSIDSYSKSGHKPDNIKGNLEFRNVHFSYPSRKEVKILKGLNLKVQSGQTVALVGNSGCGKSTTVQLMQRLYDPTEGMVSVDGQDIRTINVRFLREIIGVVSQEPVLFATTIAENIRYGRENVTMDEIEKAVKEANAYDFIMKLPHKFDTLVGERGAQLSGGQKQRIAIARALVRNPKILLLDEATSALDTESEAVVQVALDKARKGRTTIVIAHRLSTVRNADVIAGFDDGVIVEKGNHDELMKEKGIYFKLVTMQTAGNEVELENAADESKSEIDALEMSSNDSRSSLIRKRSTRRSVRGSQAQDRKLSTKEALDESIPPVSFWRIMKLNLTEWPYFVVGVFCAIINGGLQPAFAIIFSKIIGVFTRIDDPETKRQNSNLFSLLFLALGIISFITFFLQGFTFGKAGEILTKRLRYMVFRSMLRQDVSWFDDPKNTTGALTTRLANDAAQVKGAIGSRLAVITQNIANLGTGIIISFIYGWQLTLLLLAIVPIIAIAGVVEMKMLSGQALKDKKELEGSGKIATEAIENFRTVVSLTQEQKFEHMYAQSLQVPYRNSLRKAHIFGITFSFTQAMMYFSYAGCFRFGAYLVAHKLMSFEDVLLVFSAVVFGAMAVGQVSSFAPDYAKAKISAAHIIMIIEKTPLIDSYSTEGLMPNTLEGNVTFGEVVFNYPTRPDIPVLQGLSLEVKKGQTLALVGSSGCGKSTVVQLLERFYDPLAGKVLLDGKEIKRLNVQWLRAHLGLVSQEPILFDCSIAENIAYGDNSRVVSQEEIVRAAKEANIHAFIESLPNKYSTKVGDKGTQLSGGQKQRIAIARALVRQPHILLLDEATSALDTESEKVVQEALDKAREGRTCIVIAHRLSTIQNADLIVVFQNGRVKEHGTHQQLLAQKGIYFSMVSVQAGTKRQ

[4] = molecular target: ATP-dependent translocase ABCB1 (Homo sapiens, UniProt P08183, T1226W); test: Negative allosteric modulator activity at human P-gp T1226W mutant expressed in HEK293FT cells assessed as fold change in intracellular doxorubicin accumulation using doxorubicin as substrate at 1 uM incubated for 150 mins by microplate reader assay relative to DMSO; details: 2.5 h
Sequence of ATP-dependent translocase ABCB1 (Homo sapiens, UniProt P08183, T1226W) (P08183 whole entry T1226W): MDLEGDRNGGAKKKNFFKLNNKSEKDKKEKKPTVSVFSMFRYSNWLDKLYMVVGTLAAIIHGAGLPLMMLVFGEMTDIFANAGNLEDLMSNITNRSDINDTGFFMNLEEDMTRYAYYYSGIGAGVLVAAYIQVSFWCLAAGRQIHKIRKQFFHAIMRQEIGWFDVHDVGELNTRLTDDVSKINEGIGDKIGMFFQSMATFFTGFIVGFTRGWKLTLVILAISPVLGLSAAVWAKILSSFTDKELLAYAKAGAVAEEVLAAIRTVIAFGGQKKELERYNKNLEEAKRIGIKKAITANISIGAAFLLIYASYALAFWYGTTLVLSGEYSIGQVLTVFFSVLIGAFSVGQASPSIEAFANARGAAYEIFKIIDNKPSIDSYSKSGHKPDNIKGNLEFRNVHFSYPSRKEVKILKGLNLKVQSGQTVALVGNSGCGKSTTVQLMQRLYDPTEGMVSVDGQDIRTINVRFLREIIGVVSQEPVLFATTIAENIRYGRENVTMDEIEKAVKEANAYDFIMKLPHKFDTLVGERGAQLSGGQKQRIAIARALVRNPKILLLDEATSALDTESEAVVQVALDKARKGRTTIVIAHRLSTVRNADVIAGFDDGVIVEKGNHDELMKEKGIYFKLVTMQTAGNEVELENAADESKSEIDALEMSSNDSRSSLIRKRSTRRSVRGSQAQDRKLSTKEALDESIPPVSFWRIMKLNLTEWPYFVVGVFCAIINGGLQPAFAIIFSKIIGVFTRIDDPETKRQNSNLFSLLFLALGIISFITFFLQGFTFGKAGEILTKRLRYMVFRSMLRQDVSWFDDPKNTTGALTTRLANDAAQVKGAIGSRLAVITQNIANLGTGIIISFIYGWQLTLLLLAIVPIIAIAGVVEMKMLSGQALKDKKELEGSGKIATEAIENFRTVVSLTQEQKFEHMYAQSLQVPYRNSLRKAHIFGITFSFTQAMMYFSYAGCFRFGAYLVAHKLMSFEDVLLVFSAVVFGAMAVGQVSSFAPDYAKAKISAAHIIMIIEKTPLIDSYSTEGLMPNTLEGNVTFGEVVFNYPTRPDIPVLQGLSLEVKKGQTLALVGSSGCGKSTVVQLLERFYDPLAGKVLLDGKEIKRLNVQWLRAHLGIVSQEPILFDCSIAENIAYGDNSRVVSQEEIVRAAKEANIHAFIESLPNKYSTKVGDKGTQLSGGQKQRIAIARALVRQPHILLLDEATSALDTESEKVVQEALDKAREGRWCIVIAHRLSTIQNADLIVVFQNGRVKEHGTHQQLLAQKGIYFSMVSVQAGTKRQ

Activity [1]: 85.4%
fold change (FC) [2]: 1.1
fold change (FC) [3]: 45.8
fold change (FC) [4]: 1.5
SMILES: O=c1cc(-c2ccc(OCCOCCNCc3ccccc3)cc2)oc2ccccc12
